In one data set the test system is thymus. Nature of the data set: Systemic side effects: thymus weight to body weight ratio in DSS-induced colitis mice. Type of data set: in vivo, BALB/c mice. The following applies: for T/BW ratio (thymus weight:body weight) versus vehicle-treated mice: 5 mg/Kg oral twice a day, 5% DSS, FIG. 18, one-way ANOVA with Tukey post test. The protocol: The DSS induced colitis mice weighting about 18-20 grams were allowed 5% DSS water ad libitum and 100 μL of prednisolone and prodrug 2 in 1% solution cremophor and ethanol in water suspension (equivalent to 5 mg of prednisolone per Kg or mouse body weight) was orally administrated, twice a day (every twelve hours) to the colitis mice. Six days after the prednisolone and prodrugs treatments, the mice were sacrificed by cervical dislocation. The distal colon segment and the thymus were removed and washed to remove contents of the colon. One centimetre of the distal colon segment and the fresh weight of the thymus were measured to obtain the ratios of distal colon weight and thymus weight to body weight (C/B and T/B respectively). The damage of the colon specimens were scored as describe in materials and methods. The distal segments were frozen by liquid nitrogen kept at −80° C. until assayed for myeloperoxidase activity (MPO). Systemic side effects were study by comparison of the thymus weight and body weight ratio (Hideki Yano 2002) between health mice, untreated mice, prednisolone treated mice and prodrug treated mice, due to the fact that an increase on the concentration of steroid in the bloodstream provokes suppression on the activity of the thymus and the consequent reduction of its weight.

In a further data set the test system is DSS-induced colitis mice. In words: Drug efficacy in DSS-induced colitis mice (body weight loss, DAI, colon length). Type of data set: in vivo, BALB/c mice. The following applies: for body weight loss versus vehicle only controls / severity of disease (DAI score) versus vehicle alone / colon shortening versus vehicle alone: 5 mg/Kg oral twice a day, 5% DSS; for body weight loss versus vehicle only controls: FIG. 15, one-way ANOVA with Tukey post test; for severity of disease (DAI score) versus vehicle alone: FIG. 16, one-way ANOVA with Tukey post test; for colon shortening versus vehicle alone: FIG. 17, one-way ANOVA with Tukey post test. The protocol: BALB/c strain mice were from the Bioresources Unit (Trinity College Dublin). Mice were housed in individually ventilated and filtered cages under positive pressure (Tecniplast, Nothants, UK). Food and water were supplied ad libitum. All animal experiments were performed in compliance with Irish Department of Health and Children regulations and approved by the Trinity College Bioresources ethical review board.
All in vivo experiments were performed with six mice per group. […] Colitis scores were analyzed by Mann-Whitney test. P values <0.05 were considered significant. Results on the DIA, C/B and T/B MPO were expressed as means±S.E.
DSS ([…]; MP Biomedicals, OH) was dissolved in the drinking water of the mice. Fresh DSS solution was provided every second day. BALB/c mice were exposed to 5% DSS for six days. The mice were checked every day for morbidity and weight recorded. Induction of colitis was determined by weight loss, fecal blood and, upon autopsy, length of colon. Blood in feces was detected using a Hemdetect occult blood detection kit (Dipro, Austria).
To quantify induction of colitis, a disease activity index (DAI) was determined based on previous studies of DSS-induced colitis (Cooper 1993). DAI was calculated for each mouse daily based on body weight loss, occult blood and stool consistency/diarrhea. A score of […] was given for each parameter, with a maximum DAI score of 12. Score 0, No weight loss, normal stool, no blood; Score 1, 1-3% weight loss; Score 2, 3-6% weight loss, loose stool, blood visible in stool; Score 3, 6-9% weight loss; Score 4, […]. Loose stool was defined as the formation of a stool that readily becomes paste upon handling. Diarrhea was defined as no stool formation. Gross bleeding was defined as fresh blood on fur around the anus with extensive blood in the stool,
At autopsy the length of the colon was measured and a 1 cm section of colon was fixed in 10% formaldehyde-saline. H&E-stained sections were grading based on a scoring system modified from a previous study (Siegmund 2001). Histology scoring was performed in a blinded fashion. A combined score of inflammatory cell infiltration and tissue damage was determined as follows: Cell infiltration: Score 0, Occasional inflammatory cells in the LP; 1, Increased infiltrate in the LP predominantly at the base of crypts; 2, Confluence of inflammatory infiltrate extending into the mucosa; 3, Trans-mural extension of infiltrate. Tissue Damage Score 0, No mucosal damage; 1, Partial (up to 50%) loss of crypts in large areas; 2, Partial to total 50-100% loss of crypts in large areas, epithelium intact; 3, Total loss of crypts in large areas and epithelium lost.
The DSS induced colitis mice weighting about 18-20 grams were allowed 5% DSS water ad libitum and 100 μL of prednisolone and prodrug 2 in 1% solution cremophor and ethanol in water suspension (equivalent to 5 mg of prednisolone per Kg or mouse body weight) was orally administrated, twice a day (every twelve hours) to the colitis mice. Six days after the prednisolone and prodrugs treatments, the mice were sacrificed by cervical dislocation. The distal colon segment and the thymus were removed and washed to remove contents of the colon.
One centimetre of the distal colon segment and the fresh weight of the thymus were measured to obtain the ratios of distal colon weight and thymus weight to body weight (C/B and T/B respectively). The damage of the colon specimens were scored as describe in materials and methods. The distal segments were frozen by liquid nitrogen kept at −80° C. until assayed for myeloperoxidase activity (MPO).
Anti-inflammatory effects were studied by comparison of the distal colon length between healthy mice, untreated mice, prednisolone treated mice and prodrug treated mice. IBD causes shortering of the colon. […]

The conditions of data set [1]: rat intestinal perfusate; cited from earlier work.
The conditions of data set [2]: after 24 h at pH 7 (45° C.); cited from earlier work.
For data set [3] the following is noted: neutrality, 39° C.; cited from earlier work.
Data set [4] in a line: Intramolecular lactamization (cyclization) kinetics of amino prodrugs in aqueous solution, HPLC. Type of data set: physicochemical. The following applies: 37° C., pH not given, read-out: calculated half-life of lactamization (T1/2=0.693/kobs) (converted). The protocol: Release of steroid in vivo from the prodrugs hinges upon the cyclization of the amino steroid product of azo-reductase activity. The cyclization rates of the amino derivatives of cortisone A and B were monitored in aqueous solution at various pH values and at 37° C. by measuring remaining compound by HPLC along with the evolution of cortisone.
The first order rate constant for disappearance can be obtained from a plot of the natural log of remaining ester versus time. The half-life can be calculated (T1/2=0.693/kobs).

Where [5] appears, read: 5 mg/Kg, Student's t-test, original analysis.

As for `CC12C=CC(=O)C=C1CCC1C2C(O)CC2(C)C1CCC2(O)C(=O)COC(=O)CCc1ccccc1/N=N/c1ccc(O)c(C(=O)O)c1` (stereo not drawn) [Mutual Prodrug 2, 5-(2-{2[2-(11,17-dihydroxy-10,13-dimethyl-10,13-dimethyl-3-oxo-6,7,8,9,10,11,12,13,14,15,16,17-dodecahydro-3H-cyclopenta[a]phenanthrene-17-yl)-2-oxo-ethoxycarbonyl]ethyl}-phenylazo}-2-hydroxy-benzoic acid], the “T/BW ratio (thymus weight:body weight) versus vehicle-treated mice” value in the data set on thymus was “not statistically different”. Further, in the data set on DSS-induced colitis mice, the “body weight loss versus vehicle only controls” value was “weight loss was decreased”, the “severity of disease (DAI score) versus vehicle alone” value is reported as “significantly reduced” and the “colon shortening versus vehicle alone” value is “significantly less shortening”. Further, the colon length result with DSS-induced colitis mice (setting [5]) is on record as “significantly longer colon than the PRED”.

Consider `C[C@]12C=CC(=O)C=C1CC[C@@H]1[C@@H]2[C@@H](O)C[C@@]2(C)[C@H]1CC[C@]2(O)C(=O)CO` [Prednisolone], for which, in the data set with thymus, the “T/BW ratio (thymus weight:body weight) versus vehicle-treated mice” value is given as “significant reduction in T/BW ratio”. In the data set with thymus (setting [5]), the “thymus:BW ratio versus Untreated mice” value is on record as “significant reduction in thymus:BW ratio”. Further, in the data set with DSS-induced colitis mice, the “body weight loss versus vehicle only controls” value is on record as “weight loss was decreased”, the “severity of disease (DAI score) versus vehicle alone” value is recorded as “significantly reduced” and the “colon shortening versus vehicle alone” value was “significantly less shortening”.

Regarding `C[C@]12CCC(=O)C=C1CC[C@@H]1[C@@H]2[C@@H](O)C[C@@]2(C)[C@H]1CC[C@]2(O)C(=O)COC(=O)CCC(=O)O` [hydrocortisone-21-succinate], the “first-order rate constant for hydrolysis” value in data set [1] was 0.003 min⁻¹. Also, in data set [2], the disappearance entry was “less than 5%”.

With `COC(=O)CCc1ccccc1N` [methyl 3-(2-aminophenyl)propionate], the “apparent first-order rate constant of spontaneous cyclization” value in data set [3] was 0.0002 s⁻¹.

In the case of `CC12CCC(=O)C=C1CCC1C2C(O)CC2(C)C1CCC2(O)C(=O)COC(=O)Cc1ccccc1N` (stereo not drawn) [prodrug A], the half-life in data set [4] was 2.2 h.

Turning to `CC12CCC(=O)C=C1CCC1C2C(O)CC2(C)C1CCC2(O)C(=O)COC(=O)CCc1ccccc1N` (stereo not drawn) [prodrug B], the half-life in data set [4] was 1.4 h.

The values are drawn from US20090082314A1, “Targeting Prodrugs for the Treatment of Gastrointestinal Diseases” (The Provost Fellows and Scholars of the College of the, priority 2007, published 2009).
